According to PubChem BioAssay (NCI):
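Cells were grown in 96-well plates and exposed to each compound for 48 hours at five concentrations; endpoints were interpolated linearly between bracketing concentrations, or set to the highest concentration if not reached. TGI denotes the concentration required for complete inhibition of growth.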

Columns and labels:
Assay in all cases: inhibition of tumour cell growth, NCI panel, 48 h
A549 NSCLC = test system: A549 NSCLC
CCRF-CEM leukemia = test system: CCRF-CEM leukemia
OVCAR-4 ovarian = test system: OVCAR-4 ovarian
NCI-H522 lung = test system: NCI-H522 lung
KM12 colon = test system: KM12 colon
MDA-MB-231 breast = test system: MDA-MB-231 breast
NCI-H226 lung = test system: NCI-H226 lung
HOP-62 NSCLC = test system: HOP-62 NSCLC
CAKI-1 renal = test system: CAKI-1 renal
SN12C renal = test system: SN12C renal
MALME-3M melanoma = test system: MALME-3M melanoma
LOX IMVI melanoma = test system: LOX IMVI melanoma
ACHN renal = test system: ACHN renal
K-562 leukemia = test system: K-562 leukemia

Structure (SMILES): CN(C)CCCCN1c2ccccc2Sc2cc(N=[N+]=[N-])ccc21
- TGI (A549 NSCLC): 3.37 µM
- TGI (CCRF-CEM leukemia): 4.11 µM
- TGI (OVCAR-4 ovarian): 6.35 µM
- TGI (NCI-H522 lung): 3.05 µM
- TGI (KM12 colon): 3.17 µM
- TGI (MDA-MB-231 breast): 3.12 µM
- TGI (NCI-H226 lung): 7.9 µM
- TGI (HOP-62 NSCLC): 5.22 µM
- TGI (CAKI-1 renal): 3.73 µM
- TGI (SN12C renal): 12.1 µM
- TGI (MALME-3M melanoma): 3.34 µM
- TGI (LOX IMVI melanoma): 3.06 µM
- TGI (ACHN renal): 4.5 µM

Structure (SMILES): CC1=NN(C(=O)c2ccccc2O)C(=O)/C1=C/c1ccccc1O
- TGI (A549 NSCLC): > 100 µM
- TGI (K-562 leukemia): > 100 µM
- TGI (CCRF-CEM leukemia): > 100 µM
- TGI (OVCAR-4 ovarian): 68.3 µM
- TGI (NCI-H522 lung): 17.9 µM
- TGI (KM12 colon): > 100 µM
- TGI (MDA-MB-231 breast): > 100 µM
- TGI (NCI-H226 lung): 16.4 µM
- TGI (HOP-62 NSCLC): 39.4 µM
- TGI (CAKI-1 renal): > 27.3 µM
- TGI (SN12C renal): 33.7 µM
- TGI (MALME-3M melanoma): 74.4 µM
- TGI (LOX IMVI melanoma): 31.9 µM
- TGI (ACHN renal): 33.1 µM

Structure (SMILES): COC(=O)C1=C(\c2ccccc2)c2ccccc2C(=O)N(C2CCCCC2)/C=C\1
- TGI (A549 NSCLC): > 100 µM
- TGI (K-562 leukemia): > 100 µM
- TGI (CCRF-CEM leukemia): 75.5 µM
- TGI (OVCAR-4 ovarian): > 100 µM
- TGI (NCI-H522 lung): > 100 µM
- TGI (KM12 colon): 45.8 µM
- TGI (MDA-MB-231 breast): 45.1 µM
- TGI (NCI-H226 lung): 81.5 µM
- TGI (HOP-62 NSCLC): 45.3 µM
- TGI (CAKI-1 renal): 54.6 µM
- TGI (SN12C renal): > 100 µM
- TGI (MALME-3M melanoma): 68.6 µM
- TGI (LOX IMVI melanoma): 37.7 µM
- TGI (ACHN renal): > 100 µM

Structure (SMILES): COc1ccc2cc(/C=N\NC(=O)Nc3cccc4ccccc34)ccc2c1
- TGI (A549 NSCLC): > 100 µM
- TGI (K-562 leukemia): 36.5 µM
- TGI (CCRF-CEM leukemia): 41.8 µM
- TGI (OVCAR-4 ovarian): 72.1 µM
- TGI (NCI-H522 lung): > 100 µM
- TGI (KM12 colon): > 100 µM
- TGI (MDA-MB-231 breast): 65.7 µM
- TGI (NCI-H226 lung): > 100 µM
- TGI (HOP-62 NSCLC): 28.7 µM
- TGI (CAKI-1 renal): 47.6 µM
- TGI (SN12C renal): > 100 µM
- TGI (MALME-3M melanoma): > 100 µM
- TGI (LOX IMVI melanoma): > 100 µM
- TGI (ACHN renal): 76.6 µM

Structure (SMILES): NC(=O)C(c1ccccc1)N1OC2C(=O)N(c3cccc4ccccc34)C(=O)C2C1c1c2ccccc2c(Cl)c2ccccc12 (centres undefined)
- TGI (A549 NSCLC): > 50 µM
- TGI (K-562 leukemia): > 50 µM
- TGI (OVCAR-4 ovarian): 33.2 µM
- TGI (NCI-H522 lung): 44.3 µM
- TGI (KM12 colon): 7.75 µM
- TGI (MDA-MB-231 breast): 18.8 µM
- TGI (NCI-H226 lung): 13.5 µM
- TGI (HOP-62 NSCLC): 27.8 µM
- TGI (CAKI-1 renal): 22.7 µM
- TGI (SN12C renal): 16.3 µM
- TGI (MALME-3M melanoma): 35.7 µM
- TGI (LOX IMVI melanoma): 13.6 µM
- TGI (ACHN renal): 20.2 µM

Structure (SMILES): CN(C)C(=O)Nc1cc2c3c(c1)CCCN3CCC2
- TGI (A549 NSCLC): > 10 µM
- TGI (K-562 leukemia): > 10 µM
- TGI (CCRF-CEM leukemia): > 10 µM
- TGI (OVCAR-4 ovarian): > 10 µM
- TGI (NCI-H522 lung): > 10 µM
- TGI (KM12 colon): > 10 µM
- TGI (MDA-MB-231 breast): > 10 µM
- TGI (NCI-H226 lung): > 10 µM
- TGI (HOP-62 NSCLC): > 10 µM
- TGI (CAKI-1 renal): > 10 µM
- TGI (SN12C renal): > 10 µM
- TGI (MALME-3M melanoma): > 10 µM
- TGI (LOX IMVI melanoma): > 10 µM
- TGI (ACHN renal): > 10 µM

Structure (SMILES): [N-]=[NH+]CC(=O)OC(COCc1ccccc1)COCc1ccccc1
- TGI (K-562 leukemia): > 100 µM
- TGI (CCRF-CEM leukemia): > 100 µM
- TGI (OVCAR-4 ovarian): > 100 µM
- TGI (NCI-H522 lung): > 100 µM
- TGI (KM12 colon): 86.2 µM
- TGI (MDA-MB-231 breast): > 100 µM
- TGI (NCI-H226 lung): > 100 µM
- TGI (HOP-62 NSCLC): > 100 µM
- TGI (CAKI-1 renal): 86.6 µM
- TGI (SN12C renal): > 100 µM
- TGI (MALME-3M melanoma): > 100 µM
- TGI (LOX IMVI melanoma): > 100 µM
- TGI (ACHN renal): > 100 µM

Structure (SMILES): O=c1[nH]c(=S)[nH]n1C(=S)n1[nH]c(=S)[nH]c1=O
- TGI (A549 NSCLC): > 100 µM
- TGI (K-562 leukemia): > 100 µM
- TGI (CCRF-CEM leukemia): > 100 µM
- TGI (OVCAR-4 ovarian): > 100 µM
- TGI (NCI-H522 lung): > 100 µM
- TGI (KM12 colon): > 100 µM
- TGI (MDA-MB-231 breast): > 100 µM
- TGI (NCI-H226 lung): > 100 µM
- TGI (HOP-62 NSCLC): > 100 µM
- TGI (CAKI-1 renal): > 100 µM
- TGI (SN12C renal): > 100 µM
- TGI (MALME-3M melanoma): > 100 µM
- TGI (LOX IMVI melanoma): > 100 µM
- TGI (ACHN renal): > 100 µM
